Assay results taken from ChEMBL document CHEMBL1133346, “The synthesis and evaluation of 3-substituted-7-(alkylidene)cephalosporin sulfones as beta-lactamase inhibitors” (Bioorg Med Chem Lett, 2000).
pIC50: −log10 of the molar value.

Key:
Beta-lactamase class C [1] = target: T1, Beta-lactamase class C (Enterobacter cloacae, UniProt Q59401); assay: Inhibition of class C beta-lactamase derived from Enterobacter cloacae P99
Beta-lactamase TEM = Beta-lactamase TEM (Enterobacter cloacae, UniProt Q6W9J1); assay: Inhibition of class A TEM-1 beta-lactamase derived from Enterobacter cloacae
Chain of Beta-lactamase TEM (Q6W9J1 whole entry): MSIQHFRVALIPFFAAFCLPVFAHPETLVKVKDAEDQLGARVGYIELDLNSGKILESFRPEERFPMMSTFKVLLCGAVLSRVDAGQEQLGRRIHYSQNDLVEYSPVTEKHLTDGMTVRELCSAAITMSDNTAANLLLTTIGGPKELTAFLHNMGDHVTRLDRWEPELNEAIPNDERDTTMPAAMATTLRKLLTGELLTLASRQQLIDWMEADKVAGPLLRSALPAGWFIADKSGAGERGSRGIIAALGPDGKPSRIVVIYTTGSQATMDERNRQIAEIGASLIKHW

Beta-lactamase = Beta-lactamase (Staphylococcus aureus, UniProt P00807); assay: Inhibition of class A beta-lactamase derived from Staphylococcus aureus strain PC1
Chain of Beta-lactamase (P00807 whole entry): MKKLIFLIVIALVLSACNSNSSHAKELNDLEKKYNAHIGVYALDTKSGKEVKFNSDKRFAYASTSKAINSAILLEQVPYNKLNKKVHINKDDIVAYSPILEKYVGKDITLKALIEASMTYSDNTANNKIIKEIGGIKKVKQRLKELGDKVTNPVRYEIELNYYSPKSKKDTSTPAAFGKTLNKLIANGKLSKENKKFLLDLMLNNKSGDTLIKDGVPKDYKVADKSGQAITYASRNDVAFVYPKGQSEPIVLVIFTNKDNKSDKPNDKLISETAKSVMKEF

Beta-lactamase class C [2] = target: T1, Beta-lactamase class C; assay: Inhibition of GC1 extended spectrum class C beta-lactamase; design: species or system Enterobacter cloacae GC1
Beta-lactamase class C [3] = target: T1, Beta-lactamase class C; assay: The compound was evaluated for inhibition against the GC1 extended spectrum Class C beta-lactamase
Beta-lactamase class C [4] = target: T1, Beta-lactamase class C; assay: The compound was evaluated for inhibition against Class C beta-lactamase derived from Enterobacter cloacae P99

T1 sequence (Q59401 whole entry): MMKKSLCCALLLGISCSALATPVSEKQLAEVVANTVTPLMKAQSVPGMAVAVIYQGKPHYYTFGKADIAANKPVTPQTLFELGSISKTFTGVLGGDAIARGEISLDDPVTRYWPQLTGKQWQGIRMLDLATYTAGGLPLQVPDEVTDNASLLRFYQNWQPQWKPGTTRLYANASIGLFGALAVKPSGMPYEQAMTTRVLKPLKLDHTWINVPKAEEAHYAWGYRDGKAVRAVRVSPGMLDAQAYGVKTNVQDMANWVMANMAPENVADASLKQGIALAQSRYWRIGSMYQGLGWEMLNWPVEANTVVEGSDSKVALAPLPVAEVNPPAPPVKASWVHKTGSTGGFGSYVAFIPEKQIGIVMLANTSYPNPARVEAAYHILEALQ

Question: How did the pIC50 (Beta-lactamase class C [1]) turn out when `NC(=O)/C=C/C1=C(C(=O)O)N2C(=O)/C(=C/c3cccs3)C2S(=O)(=O)C1` (stereo unspecified) was run?
Answer: 6.54

Question: What about the pIC50 (Beta-lactamase TEM) of the same compound?
Answer: 6.05

Question: And the pIC50 (Beta-lactamase)?
Answer: 3.81

Question: How did the pIC50 (Beta-lactamase class C [1]) turn out when `C=C1C(/C=C/C(=O)O)=C(C(=O)O)N2C(=O)/C(=C/c3ccccn3)C2S1(=O)=O` (stereo unspecified) was run?
Answer: 5.18

Question: And the pIC50 (Beta-lactamase TEM)?
Answer: 5.60

Question: Which results are given for `O=C(O)C1=C(/C=C/[N+](=O)[O-])CS(=O)(=O)C2/C(=C\c3ccccn3)C(=O)N12` (stereo unspecified)?
Answer: pIC50 (Beta-lactamase class C [2]): 7.00; pIC50 (Beta-lactamase class C [1]): 7.70; pIC50 (Beta-lactamase TEM): 7.15; pIC50 (Beta-lactamase): 6.70

Question: Which results are given for `CC(C)(C)OC(=O)/C=C/C1=C(C(=O)O)N2C(=O)/C(=C/c3ccccn3)C2S(=O)(=O)C1` (stereo unspecified)?
Answer: pIC50 (Beta-lactamase class C [1]): 5.83; pIC50 (Beta-lactamase): 3.62

Question: `N#C/C=C/C1=C(C(=O)O)N2C(=O)/C(=C/c3ccccn3)C2S(=O)(=O)C1` (stereo unspecified) was tested. Which pIC50 (Beta-lactamase TEM) did it give?
Answer: 7.85

Question: What about the pIC50 (Beta-lactamase class C [3]) of the same compound?
Answer: 7.92

Question: What about the pIC50 (Beta-lactamase class C [4]) of the same compound?
Answer: 8.00

Question: And the pIC50 (Beta-lactamase)?
Answer: 6.14

Question: Which results are given for `C=C1C(/C=C/C(=O)OC)=C(C(=O)O)N2C(=O)/C(=C/c3ccccn3)C2S1(=O)=O` (stereo unspecified)?
Answer: pIC50 (Beta-lactamase class C [2]): 7.22; pIC50 (Beta-lactamase class C [1]): 7.52; pIC50 (Beta-lactamase TEM): 5.54; pIC50 (Beta-lactamase): 5.22

Question: How did the pIC50 (Beta-lactamase class C [2]) turn out when `NC(=O)/C=C/C1=C(C(=O)O)N2C(=O)/C(=C/c3ccccn3)C2S(=O)(=O)C1` (stereo unspecified) was run?
Answer: 8.00

Question: And the pIC50 (Beta-lactamase class C [1])?
Answer: 7.59

Question: What about the pIC50 (Beta-lactamase TEM) of the same compound?
Answer: 7.05

Question: What about the pIC50 (Beta-lactamase) of the same compound?
Answer: 7.00

Question: How did the pIC50 (Beta-lactamase class C [1]) turn out when `N#CCC1=C(C(=O)O)N2C(=O)/C(=C/c3ccccn3)C2S(=O)(=O)C1` (stereo unspecified) was run?
Answer: 6.05

Question: And the pIC50 (Beta-lactamase TEM)?
Answer: 5.25

Question: And the pIC50 (Beta-lactamase)?
Answer: 5.05

Question: With `C=C1C(/C=C/C(=O)OC(C)(C)C)=C(C(=O)O)N2C(=O)/C(=C/c3ccccn3)C2S1(=O)=O` (stereo unspecified) as the compound, how does the pIC50 (Beta-lactamase class C [2]) read?
Answer: 3.82

Question: And the pIC50 (Beta-lactamase class C [1])?
Answer: 3.36

Question: What does the source list for `COC(=O)/C(Cl)=C/C1=C(C(=O)O)N2C(=O)/C(=C/c3ccccn3)C2S(=O)(=O)C1` (stereo unspecified)?
Answer: pIC50 (Beta-lactamase class C [2]): 6.74; pIC50 (Beta-lactamase class C [1]): 6.05; pIC50 (Beta-lactamase TEM): 7.15; pIC50 (Beta-lactamase): 5.85

Question: With `CCC(=O)OCC1=C(C(=O)O)N2C(=O)/C(=C/c3ccccn3)C2S(=O)(=O)C1` (stereo unspecified) as the compound, how does the pIC50 (Beta-lactamase TEM) read?
Answer: 3.51

Question: What about the pIC50 (Beta-lactamase) of the same compound?
Answer: 4.81

Question: `O=C(O)C1=C(/C=C/c2ccccn2)CS(=O)(=O)[C@@H]2/C(=C\c3ccccn3)C(=O)N12` was tested. Which pIC50 (Beta-lactamase class C [1]) did it give?
Answer: 6.74

Question: What about the pIC50 (Beta-lactamase TEM) of the same compound?
Answer: 6.70

Question: And the pIC50 (Beta-lactamase)?
Answer: 5.37

Question: What does the source list for `O=C(COc1ccccc1)OCC1=C(C(=O)O)N2C(=O)/C(=C/c3ccccn3)C2S(=O)(=O)C1` (stereo unspecified)?
Answer: pIC50 (Beta-lactamase class C [2]): 6.89; pIC50 (Beta-lactamase class C [1]): 7.00; pIC50 (Beta-lactamase TEM): 6.10; pIC50 (Beta-lactamase): 4.00

Question: How did the pIC50 (Beta-lactamase class C [1]) turn out when `O=C(O)/C=C/C1=C(C(=O)O)N2C(=O)/C(=C/c3ccccn3)C2S(=O)(=O)C1` (stereo unspecified) was run?
Answer: 6.51

Question: What about the pIC50 (Beta-lactamase TEM) of the same compound?
Answer: 5.60

Question: And the pIC50 (Beta-lactamase)?
Answer: 4.51

Question: `COCC1=C(C(=O)O)N2C(=O)/C(=C/c3ccccn3)C2S(=O)(=O)C1` (stereo unspecified) was tested. Which pIC50 (Beta-lactamase class C [2]) did it give?
Answer: 5.92

Question: And the pIC50 (Beta-lactamase class C [1])?
Answer: 6.15

Question: What about the pIC50 (Beta-lactamase TEM) of the same compound?
Answer: 6.15

Question: And the pIC50 (Beta-lactamase)?
Answer: 4.55

Question: With `O=C(O)C1=C(/C=C/c2cccc[n+]2[O-])CS(=O)(=O)[C@@H]2/C(=C\c3ccccn3)C(=O)N12` as the compound, how does the pIC50 (Beta-lactamase class C [2]) read?
Answer: 7.00

Question: And the pIC50 (Beta-lactamase class C [1])?
Answer: 6.22

Question: And the pIC50 (Beta-lactamase TEM)?
Answer: 8.22

Question: And the pIC50 (Beta-lactamase)?
Answer: 5.07

Question: `O=C(Cc1ccc(O)c(O)c1)OCC1=C(C(=O)O)N2C(=O)/C(=C/c3ccccn3)C2S(=O)(=O)C1` (stereo unspecified) was tested. Which pIC50 (Beta-lactamase class C [1]) did it give?
Answer: 5.44

Question: And the pIC50 (Beta-lactamase TEM)?
Answer: 4.76

Question: And the pIC50 (Beta-lactamase)?
Answer: 4.17

Question: Which results are given for `CCOC(=O)CNC(=O)OCC1=C(C(=O)O)N2C(=O)/C(=C/c3ccccn3)C2S(=O)(=O)C1` (stereo unspecified)?
Answer: pIC50 (Beta-lactamase class C [2]): 4.35; pIC50 (Beta-lactamase class C [1]): 6.40; pIC50 (Beta-lactamase TEM): 3.59; pIC50 (Beta-lactamase): 4.48

Question: With `C=C/C=C/C1=C(C(=O)O)N2C(=O)/C(=C/c3ccccn3)C2S(=O)(=O)C1` (stereo unspecified) as the compound, how does the pIC50 (Beta-lactamase class C [1]) read?
Answer: 4.62

Question: What about the pIC50 (Beta-lactamase TEM) of the same compound?
Answer: 4.17

Question: And the pIC50 (Beta-lactamase)?
Answer: 4.12

Question: `COC(=O)/C=C/C1=C(C(=O)O)N2C(=O)/C(=C/c3ccccn3)C2S(=O)(=O)C1` (stereo unspecified) was tested. Which pIC50 (Beta-lactamase class C [2]) did it give?
Answer: 6.52

Question: What about the pIC50 (Beta-lactamase class C [1]) of the same compound?
Answer: 6.70

Question: What about the pIC50 (Beta-lactamase TEM) of the same compound?
Answer: 7.70

Question: And the pIC50 (Beta-lactamase)?
Answer: 6.52

Question: With `C=CC(=O)OCC1=C(C(=O)O)N2C(=O)/C(=C/c3ccccn3)C2S(=O)(=O)C1` (stereo unspecified) as the compound, how does the pIC50 (Beta-lactamase class C [2]) read?
Answer: 6.05

Question: And the pIC50 (Beta-lactamase class C [1])?
Answer: 7.00

Question: What about the pIC50 (Beta-lactamase) of the same compound?
Answer: 3.96

Question: `NC(=O)OCC1=C(C(=O)O)N2C(=O)/C(=C/c3ccccn3)C2S(=O)(=O)C1` (stereo unspecified) was tested. Which pIC50 (Beta-lactamase class C [2]) did it give?
Answer: 6.59

Question: And the pIC50 (Beta-lactamase class C [1])?
Answer: 5.64

Question: What about the pIC50 (Beta-lactamase TEM) of the same compound?
Answer: 4.98

Question: What about the pIC50 (Beta-lactamase) of the same compound?
Answer: 5.10

Question: How did the pIC50 (Beta-lactamase class C [1]) turn out when `N#CC1=C(C(=O)O)N2C(=O)/C(=C/c3ccccn3)C2S(=O)(=O)C1` (stereo unspecified) was run?
Answer: 7.54

Question: What about the pIC50 (Beta-lactamase TEM) of the same compound?
Answer: 5.63

Question: And the pIC50 (Beta-lactamase)?
Answer: 3.55
